Measured values from patent US20150352108A1, “AMINO-PYRIMIDINE COMPOUNDS AS INHIBITORS OF TBK1 AND/OR IKK EPSILON” (Alzheimer's Institute of America, priority 2009, published 2015).
pIC50: −log10 of the molar value. Like-named read-outs stand apart in the source and are kept apart here.

Experiments:
TBK1 = molecular target: T1, TBK1 (Homo sapiens, UniProt Q9UHD2); experiment: In-vitro TBK1 kinase assay ([γ33]ATP filter-plate); assay type: biochemical
T1 construct: His-tag; made in house; host or cells: Sf9 insect cells
T1 sequence (Q9UHD2 1-729): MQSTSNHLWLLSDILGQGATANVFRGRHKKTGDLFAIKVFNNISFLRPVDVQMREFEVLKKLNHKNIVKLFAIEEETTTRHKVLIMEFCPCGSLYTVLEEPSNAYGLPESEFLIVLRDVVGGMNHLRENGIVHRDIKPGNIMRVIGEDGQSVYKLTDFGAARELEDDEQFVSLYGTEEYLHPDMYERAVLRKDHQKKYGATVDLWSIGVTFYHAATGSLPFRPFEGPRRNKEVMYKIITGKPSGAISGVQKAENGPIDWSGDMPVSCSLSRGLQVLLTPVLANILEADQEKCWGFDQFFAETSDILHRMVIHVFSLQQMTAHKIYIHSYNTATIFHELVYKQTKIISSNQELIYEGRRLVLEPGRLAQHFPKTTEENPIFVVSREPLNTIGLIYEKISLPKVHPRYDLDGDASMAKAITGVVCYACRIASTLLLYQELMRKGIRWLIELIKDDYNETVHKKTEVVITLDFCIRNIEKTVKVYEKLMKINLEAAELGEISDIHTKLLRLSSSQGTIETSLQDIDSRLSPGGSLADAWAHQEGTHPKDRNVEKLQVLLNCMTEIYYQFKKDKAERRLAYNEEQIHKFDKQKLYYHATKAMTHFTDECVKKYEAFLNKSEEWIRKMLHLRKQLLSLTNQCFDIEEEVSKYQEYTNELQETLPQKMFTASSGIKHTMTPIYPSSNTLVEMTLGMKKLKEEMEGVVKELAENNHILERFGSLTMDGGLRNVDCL
How it was run: (§1)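 His-tagged Sf9-expressed kinases at 0.1 or 0.02 μg/ml (TBK1) and 0.1 or 0.015 μg/ml (IKKε) for normal and sensitized formats, with myelin basic protein or casein substrate. ATP was at 2×Km (60 μM TBK1, 32 μM IKKε) plus 0.3 μCi [γ33]ATP. Reactions ran 30-45 min, were captured on P-81 filters, and counts were normalized to DMSO.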

[1] = test system: IKKε-mediated phosphorylation of IRF3; experiment: In-situ phosphorylation of IRF3 (pIRF3 Ser396 ELISA) in HEK293T cells cotransfected with IRF3 and IKKε; assay type: cell-based; details: Homo sapiens, HEK-293T
How it was run: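 Cells for the IRF7 Western blots carried IRF7 and TBK1 plasmids, were seeded at 150,000/well, exposed to compound overnight and probed for pSer477/Ser479 IRF7. The ELISA readout used IRF3 + IKKε-cotransfected HEK293T at 20,000/well with 20 h treatment, quantifying pSer396 IRF3 relative to DMSO, plus a parallel CellTiter-Glo viability check.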

IKKε = molecular target: T2, IKKε (Homo sapiens, UniProt Q14164); experiment: In-vitro IKKε kinase assay ([γ33]ATP filter-plate); assay type: biochemical
T2 construct: His-tag; made in house; host or cells: Sf9 insect cells
T2 sequence (Q14164 1-716): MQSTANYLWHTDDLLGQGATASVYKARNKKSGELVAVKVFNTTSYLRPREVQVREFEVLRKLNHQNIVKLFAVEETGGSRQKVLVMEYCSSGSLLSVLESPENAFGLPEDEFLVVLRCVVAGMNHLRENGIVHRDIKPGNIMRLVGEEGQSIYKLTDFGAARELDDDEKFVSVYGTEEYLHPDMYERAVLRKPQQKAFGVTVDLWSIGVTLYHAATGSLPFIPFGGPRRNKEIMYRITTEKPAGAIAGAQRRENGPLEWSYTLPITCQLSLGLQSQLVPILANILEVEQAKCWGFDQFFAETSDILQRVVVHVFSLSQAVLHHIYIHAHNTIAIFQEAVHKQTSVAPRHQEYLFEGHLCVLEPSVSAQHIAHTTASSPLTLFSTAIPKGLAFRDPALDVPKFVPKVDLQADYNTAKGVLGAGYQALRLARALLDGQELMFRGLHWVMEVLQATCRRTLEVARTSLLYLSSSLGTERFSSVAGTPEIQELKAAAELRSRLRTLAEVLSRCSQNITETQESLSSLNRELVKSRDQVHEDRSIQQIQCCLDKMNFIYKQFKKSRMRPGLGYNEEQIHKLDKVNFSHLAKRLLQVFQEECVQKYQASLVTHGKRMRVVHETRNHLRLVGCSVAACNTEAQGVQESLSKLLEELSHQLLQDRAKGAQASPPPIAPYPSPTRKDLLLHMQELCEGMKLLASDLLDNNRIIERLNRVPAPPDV
How it was run: as §1

[2] = text bins, read-out: IC50 for inhibition of the kinase activity of TBK1
[3] = HEK293T cells, 20 hours, text bins, read-out: IC50 for inhibition of the in-situ IKKε-mediated phosphorylation of IRF3
[4] = text bins, read-out: IC50 for inhibition of the kinase activity of IKKε
[5] = HEK293T cells in culture, Table 3, read-out: pIRF3 ELISA IC50

SMILES	pIC50 (TBK1; [2])	pIC50 [1, 3]	pIC50 (IKKε; [4])	pIC50 (TBK1; Table 3, read-out: TBK1 IC50)	pIC50 [1, 5]	pIC50 (IKKε; Table 3, read-out: IKKε IC50)
COc1cc(Nc2nccc(-c3ccc(OC4CCOCC4)c(C#N)c3)n2)ccc1C(=O)N1CC(N(C)C)C1 [compound 377, 5-{2-[(4-{[3-(dimethylamino)azetidin-1-yl]carbonyl}-3-methoxyphenyl)amino]pyrimidin-4-yl}-2-(tetrahydro-2H-pyran-4-yloxy)benzonitrile]	> 8.00	6.60 to 7.00	> 8.30			
COc1cc(Nc2nccc(-c3ccc(OC4CCOCC4)c(C#N)c3)n2)ccc1C(=O)NC1CCN(C)CC1 [compound 381, 4-({4-[3-cyano-4-(tetrahydro-2H-pyran-4-yloxy)phenyl]pyrimidin-2-yl}amino)-2-methoxy-N-(1-methylpiperidin-4-yl)benzamide]	> 8.00	6.30 to 6.60	> 8.30	9.40	6.46	9.22
COc1cc(Nc2nccc(-c3ccc(OC4CCOCC4)c(C#N)c3)n2)ccc1C(=O)N(C)C1CCN(C)C1 (stereo not drawn) [compound 385, 4-({4-[3-cyano-4-(tetrahydro-2H-pyran-4-yloxy)phenyl]pyrimidin-2-yl}amino)-2-methoxy-N-methyl-N-(1-methylpyrrolidin-3-yl)benzamide]	> 8.00	> 7.00	> 8.30			
COc1cc(Nc2nccc(-c3ccc(OC4CCOCC4)c(C#N)c3)n2)ccc1S(=O)(=O)N1CCCN(C)CC1 [compound 392, 5-[2-({3-Methoxy-4-[(4-methyl-1,4-diazepan-1-yl)sulfonyl]phenyl}amino)pyrimidin-4-yl]-2-(tetrahydro-2H-pyran-4-yloxy)benzonitrile]	> 8.00	> 7.00	> 8.30	9.70	7.91	9.70
N#Cc1cc(-c2ccnc(Nc3cccc(N)c3)n2)ccc1OC1CCOCC1 [compound 393, 5-{2-[(3-Aminophenyl)amino]pyrimidin-4-yl}-2-(tetrahydro-2H-pyran-4-yloxy)benzonitrile]	> 8.00	> 7.00	> 8.30			
N#Cc1cc(-c2ccnc(Nc3cccc(CO)c3)n2)ccc1OC1CCOCC1 [compound 395, 5-(2-{[3-(hydroxymethyl)phenyl]amino}pyrimidin-4-yl)-2-(tetrahydro-2H-pyran-4-yloxy)benzonitrile]	> 8.00	> 7.00	> 8.30			
COc1cc(Nc2nccc(-c3ccc(OC4CCOCC4)c(C#N)c3)n2)ccc1S(=O)(=O)N1CCC(N(C)C)C1 (stereo not drawn) [compound 400, 5-{2-[(4-{[3-(dimethylamino)pyrrolidin-1-yl]sulfonyl}-3-methoxyphenyl)amino]pyrimidin-4-yl}-2-(tetrahydro-2H-pyran-4-yloxy)benzonitrile]	> 8.00	> 7.00	> 8.30			
CN(C)S(=O)(=O)Cc1ccc(Nc2nccc(-c3ccc(OC4CCOCC4)c(C#N)c3)n2)cc1 [compound 401, 1-[4-({4-[3-Cyano-4-(tetrahydro-2H-pyran-4-yloxy)phenyl]pyrimidin-2-yl}amino)phenyl]-N,N-dimethylmethane-sulfonamide]	> 8.00	> 7.00	> 8.30			
N#Cc1cc(-c2ccnc(Nc3ccc(CS(=O)(=O)NCCO)cc3)n2)ccc1OC1CCOCC1 [compound 402, 1-[4-({4-[3-Cyano-4-(tetrahydro-2H-pyran-4-yloxy)phenyl]pyrimidin-2-yl}amino)phenyl]-N-(2-hydroxyethyl) methanesulfonamide]	> 8.00	> 7.00	> 8.30			
CC(C)N1CCN(C(=O)Cc2cccc(Nc3nccc(-c4ccc(OC5CCOCC5)c(C#N)c4)n3)c2)CC1 [compound 408, 5-{2-[(3-{2-Oxo-2-[4-(propan-2-yl)piperazin-1-yl]ethyl}phenyl)amino]pyrimidin-4-yl}-2-(tetrahydro-2H-pyran-4-yloxy)benzonitrile]	> 8.00	> 7.00	7.30 to 8.30			
CC(C)C(=O)Nc1ccc(-c2ccnc(Nc3ccc(CC(=O)N4CCN(C(C)C)CC4)cc3)n2)cc1C#N [compound 418, N-(2-cyano-4-{2-[(4-{2-oxo-2-[4-(propan-2-yl)piperazin-1-yl]ethyl}phenyl)amino]pyrimidin-4-yl}phenyl)-2-methylpropanamide]	> 8.00	> 7.00	7.30 to 8.30			

Next, values leading:

pIC50 (TBK1; [2])	pIC50 [1, 3]	pIC50 (IKKε; [4])	pIC50 (TBK1; Table 3, read-out: TBK1 IC50)	pIC50 [1, 5]	pIC50 (IKKε; Table 3, read-out: IKKε IC50)	SMILES
> 8.00	> 7.00	> 8.30				N#Cc1cc(-c2ccnc(Nc3ccc(CS(=O)(=O)N4CCOCC4)cc3)n2)ccc1OC1CCOCC1 [compound 404, 5-[2-({4-[(Morpholin-4-ylsulfonyl)methyl]phenyl}amino)pyrimidin-4-yl]-2-(tetrahydro-2H-pyran-4-yloxy)benzonitrile]
> 8.00	> 7.00	> 8.30				N#Cc1cc(-c2ccnc(Nc3ccc(CS(=O)(=O)NCCCN4CCOCC4)cc3)n2)ccc1OC1CCOCC1 [compound 405, 1-[4-({4-[3-Cyano-4-(tetrahydro-2H-pyran-4-yloxy)phenyl]pyrimidin-2-yl}amino)phenyl]-N-[3-(morpholin-4-yl)propyl] methanesulfonamide]
> 8.00	> 7.00	> 8.30				N#Cc1cc(-c2ccnc(Nc3ccc(CS(=O)(=O)N4CCN(CCO)CC4)cc3)n2)ccc1OC1CCOCC1 [compound 406, 5-(2-{[4-({[4-(2-Hydroxyethyl)piperazin-1-yl]sulfonyl}methyl)phenyl]amino}pyrimidin-4-yl)-2-(tetrahydro-2H-pyran-4-yloxy)benzonitrile]
> 8.00	> 7.00	> 8.30				CNS(=O)(=O)Cc1ccc(Nc2nccc(-c3ccc(OC4CCOCC4)c(C#N)c3)n2)cc1 [compound 413, 1-[4-({4-[3-cyano-4-(tetrahydro-2H-pyran-4-yloxy)phenyl]pyrimidin-2-yl}amino)phenyl]-N-methylmethane-sulfonamide]
7.00 to 8.00	6.60 to 7.00	7.30 to 8.30				CNS(=O)(=O)Cc1ccc(Nc2nccc(-c3ccc(NC(=O)C(C)C)c(C#N)c3)n2)cc1 [compound 414, N-{2-cyano-4-[2-({4-[(methylsulfamoyl)methyl]phenyl}amino)pyrimidin-4-yl]phenyl}-2-methylpropanamide]
> 8.00	> 7.00	> 8.30				CC1CC1C(=O)Nc1ccc(-c2ccnc(Nc3ccc(N4CCOCC4)cc3)n2)cc1C#N (stereo not drawn) [compound 415, N-[2-cyano-4-(2-{[4-(morpholin-4-yl)phenyl]amino}pyrimidin-4-yl)phenyl]-2-methylcyclopropane-carboxamide]
> 8.00	> 7.00	7.30 to 8.30				COc1cc(Nc2nccc(-c3ccc(NC(=O)C(C)C)c(C#N)c3)n2)ccc1OCCCN1CCOCC1 [compound 434, N-{2-cyano-4-[2-({3-methoxy-4-[3-(morpholin-4-yl)propoxy]phenyl}amino)pyrimidin-4-yl]phenyl}-2-methylpropanamide]
